Results published in ChEMBL document CHEMBL3872258, “Challenges in the development of an M4 PAM in vivo tool compound: The discovery of VU0467154 and unexpected DMPK profiles of close analogs” (Bioorg Med Chem Lett, 2017).

How the values were obtained:
[1] = Binding affinity to rat brain GABA receptor by radio-ligand binding assay
[2] = target: Growth hormone secretagogue receptor type 1 (Homo sapiens, UniProt Q92847); test: Inhibition of ghrelin receptor (unknown origin) by radioligand binding assay
[3] = target: T1, Muscarinic acetylcholine receptor M4 (Rattus norvegicus, UniProt P08485); test: Positive allosteric modulation of rat M4 receptor expressed in CHO cells co-expressing Gqui5 by calcium mobilization assay; assay type: functional, cell-based
T1 sequence (P08485 whole entry): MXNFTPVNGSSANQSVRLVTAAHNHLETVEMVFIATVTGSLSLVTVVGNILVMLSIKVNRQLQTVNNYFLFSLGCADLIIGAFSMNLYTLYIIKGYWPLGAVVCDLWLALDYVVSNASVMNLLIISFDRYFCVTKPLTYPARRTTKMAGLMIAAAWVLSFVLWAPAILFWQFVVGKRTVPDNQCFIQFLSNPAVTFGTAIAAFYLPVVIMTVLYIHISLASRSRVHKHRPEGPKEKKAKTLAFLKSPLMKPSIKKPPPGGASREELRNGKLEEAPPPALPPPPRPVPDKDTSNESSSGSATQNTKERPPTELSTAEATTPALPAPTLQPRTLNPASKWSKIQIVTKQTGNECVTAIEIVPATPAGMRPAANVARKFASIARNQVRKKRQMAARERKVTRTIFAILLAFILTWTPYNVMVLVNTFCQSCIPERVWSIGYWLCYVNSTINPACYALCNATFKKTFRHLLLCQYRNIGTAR

[4] = target: T2, Muscarinic acetylcholine receptor M4 (Homo sapiens, UniProt P08173); test: Positive allosteric modulation of human M4 receptor expressed in CHO cells co-expressing Gqui5 by calcium mobilization assay; assay type: functional, cell-based; settings: read-out: EC50
T2 sequence (P08173 whole entry): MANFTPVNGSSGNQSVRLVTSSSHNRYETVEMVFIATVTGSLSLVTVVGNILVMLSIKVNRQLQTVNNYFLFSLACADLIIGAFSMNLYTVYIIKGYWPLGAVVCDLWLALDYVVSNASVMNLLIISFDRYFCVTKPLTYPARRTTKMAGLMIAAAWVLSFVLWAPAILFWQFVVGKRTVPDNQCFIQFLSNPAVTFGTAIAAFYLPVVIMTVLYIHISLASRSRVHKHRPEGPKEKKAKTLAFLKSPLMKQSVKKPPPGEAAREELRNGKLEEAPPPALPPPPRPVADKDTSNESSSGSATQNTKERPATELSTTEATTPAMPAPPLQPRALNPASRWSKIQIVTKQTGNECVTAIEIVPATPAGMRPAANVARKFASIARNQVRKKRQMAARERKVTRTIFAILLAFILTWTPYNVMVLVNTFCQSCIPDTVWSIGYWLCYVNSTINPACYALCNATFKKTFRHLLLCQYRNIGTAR

[5] = target: Sodium-dependent serotonin transporter (Homo sapiens, UniProt P31645); test: Displacement of [3H]-Paroxetine from recombinant human SERT expressed in HEK293 cells; assay type: cell-based
[6] = Ratio of total drug level in brain to plasma in Sprague-Dawley rat at 0.20 to 0.25 mg/kg, iv administered through cassette dosing after 0.25 hrs; assay type: ADME, organism-based
[7] = Plasma clearance in Sprague-Dawley rat at 1 mg/kg, iv; assay type: ADME, organism-based
[8] = Unbound fraction in rat plasma; assay type: ADME, cell-free
[9] = Inhibition of human adenosine transporter assessed as reduction in [3H]-adenosine uptake
[10] = target: Voltage-dependent L-type calcium channel subunit alpha-1C (Homo sapiens, UniProt Q13936); test: Binding affinity to human Cav1.2 by radio-ligand binding assay
Voltage-dependent L-type calcium channel subunit alpha-1C, sequence (Q13936 whole entry): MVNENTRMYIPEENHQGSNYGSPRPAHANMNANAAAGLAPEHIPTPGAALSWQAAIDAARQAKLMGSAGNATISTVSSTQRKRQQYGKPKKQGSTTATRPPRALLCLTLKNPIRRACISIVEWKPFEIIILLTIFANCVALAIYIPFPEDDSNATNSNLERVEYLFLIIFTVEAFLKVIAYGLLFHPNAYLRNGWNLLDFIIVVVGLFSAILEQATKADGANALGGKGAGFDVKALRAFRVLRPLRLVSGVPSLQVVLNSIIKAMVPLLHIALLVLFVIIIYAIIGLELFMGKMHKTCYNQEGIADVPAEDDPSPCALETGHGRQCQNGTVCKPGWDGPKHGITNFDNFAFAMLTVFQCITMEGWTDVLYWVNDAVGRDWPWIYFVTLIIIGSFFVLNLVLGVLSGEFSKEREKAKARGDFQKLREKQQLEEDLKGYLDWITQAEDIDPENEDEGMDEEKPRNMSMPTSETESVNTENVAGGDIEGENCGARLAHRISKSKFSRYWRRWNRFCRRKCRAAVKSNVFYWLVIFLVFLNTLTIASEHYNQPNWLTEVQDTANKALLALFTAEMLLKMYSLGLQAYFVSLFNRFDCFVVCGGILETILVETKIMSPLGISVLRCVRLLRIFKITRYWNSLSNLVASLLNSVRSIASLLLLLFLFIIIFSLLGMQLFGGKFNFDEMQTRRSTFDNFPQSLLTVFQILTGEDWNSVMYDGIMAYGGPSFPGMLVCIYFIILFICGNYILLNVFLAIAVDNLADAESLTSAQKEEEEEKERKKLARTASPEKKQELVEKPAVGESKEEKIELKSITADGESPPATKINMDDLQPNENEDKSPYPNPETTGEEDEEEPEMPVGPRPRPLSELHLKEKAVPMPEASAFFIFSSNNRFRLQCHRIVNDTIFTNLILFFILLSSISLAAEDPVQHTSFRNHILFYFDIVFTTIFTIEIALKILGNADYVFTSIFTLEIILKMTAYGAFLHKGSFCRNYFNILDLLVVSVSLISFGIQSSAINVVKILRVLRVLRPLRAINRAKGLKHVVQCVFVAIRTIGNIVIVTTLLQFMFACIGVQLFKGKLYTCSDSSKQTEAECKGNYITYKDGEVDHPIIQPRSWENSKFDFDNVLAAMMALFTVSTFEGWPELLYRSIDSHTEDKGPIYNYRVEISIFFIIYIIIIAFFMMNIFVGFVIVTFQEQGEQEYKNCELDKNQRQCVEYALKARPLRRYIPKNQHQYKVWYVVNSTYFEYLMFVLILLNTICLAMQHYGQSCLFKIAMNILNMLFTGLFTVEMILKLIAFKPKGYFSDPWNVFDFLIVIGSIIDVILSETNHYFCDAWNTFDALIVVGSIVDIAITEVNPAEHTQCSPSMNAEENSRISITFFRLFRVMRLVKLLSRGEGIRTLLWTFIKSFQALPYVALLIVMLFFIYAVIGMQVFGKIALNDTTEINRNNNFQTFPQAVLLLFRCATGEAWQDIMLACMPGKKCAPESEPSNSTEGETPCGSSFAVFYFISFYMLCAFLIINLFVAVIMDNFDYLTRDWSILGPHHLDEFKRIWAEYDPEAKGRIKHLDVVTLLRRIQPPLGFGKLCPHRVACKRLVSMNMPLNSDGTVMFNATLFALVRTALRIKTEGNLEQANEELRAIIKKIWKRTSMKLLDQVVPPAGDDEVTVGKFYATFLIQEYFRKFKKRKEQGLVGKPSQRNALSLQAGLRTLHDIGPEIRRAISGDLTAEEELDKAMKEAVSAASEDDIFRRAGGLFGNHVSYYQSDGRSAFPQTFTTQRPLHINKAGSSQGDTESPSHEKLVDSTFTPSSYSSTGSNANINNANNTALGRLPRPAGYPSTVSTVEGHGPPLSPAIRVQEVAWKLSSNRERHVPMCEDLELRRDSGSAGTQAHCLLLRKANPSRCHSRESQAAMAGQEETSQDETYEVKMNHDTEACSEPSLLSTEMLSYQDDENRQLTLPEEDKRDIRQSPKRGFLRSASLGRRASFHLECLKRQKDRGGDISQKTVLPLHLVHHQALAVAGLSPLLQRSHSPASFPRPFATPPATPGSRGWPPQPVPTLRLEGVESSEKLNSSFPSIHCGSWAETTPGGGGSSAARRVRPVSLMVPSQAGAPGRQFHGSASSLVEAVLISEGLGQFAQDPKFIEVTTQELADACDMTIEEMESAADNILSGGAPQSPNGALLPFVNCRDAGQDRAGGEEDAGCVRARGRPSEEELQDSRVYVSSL

Sodium-dependent serotonin transporter, sequence (P31645 whole entry): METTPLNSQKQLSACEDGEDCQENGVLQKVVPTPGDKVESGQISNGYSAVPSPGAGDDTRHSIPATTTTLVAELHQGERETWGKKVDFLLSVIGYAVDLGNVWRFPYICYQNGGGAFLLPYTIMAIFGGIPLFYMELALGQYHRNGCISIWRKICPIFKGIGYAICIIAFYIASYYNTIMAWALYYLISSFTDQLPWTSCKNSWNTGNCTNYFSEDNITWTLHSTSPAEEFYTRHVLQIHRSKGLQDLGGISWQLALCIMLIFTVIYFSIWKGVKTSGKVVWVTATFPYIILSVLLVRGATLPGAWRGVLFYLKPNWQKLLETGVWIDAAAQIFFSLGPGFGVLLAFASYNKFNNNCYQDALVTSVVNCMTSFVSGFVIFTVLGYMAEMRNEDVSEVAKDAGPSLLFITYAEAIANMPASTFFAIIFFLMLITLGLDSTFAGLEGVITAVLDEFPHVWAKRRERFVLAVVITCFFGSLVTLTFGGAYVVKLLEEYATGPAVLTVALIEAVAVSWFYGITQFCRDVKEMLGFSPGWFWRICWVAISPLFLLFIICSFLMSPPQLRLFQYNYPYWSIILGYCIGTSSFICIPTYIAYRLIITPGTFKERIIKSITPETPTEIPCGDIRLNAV
Growth hormone secretagogue receptor type 1, sequence (Q92847 whole entry): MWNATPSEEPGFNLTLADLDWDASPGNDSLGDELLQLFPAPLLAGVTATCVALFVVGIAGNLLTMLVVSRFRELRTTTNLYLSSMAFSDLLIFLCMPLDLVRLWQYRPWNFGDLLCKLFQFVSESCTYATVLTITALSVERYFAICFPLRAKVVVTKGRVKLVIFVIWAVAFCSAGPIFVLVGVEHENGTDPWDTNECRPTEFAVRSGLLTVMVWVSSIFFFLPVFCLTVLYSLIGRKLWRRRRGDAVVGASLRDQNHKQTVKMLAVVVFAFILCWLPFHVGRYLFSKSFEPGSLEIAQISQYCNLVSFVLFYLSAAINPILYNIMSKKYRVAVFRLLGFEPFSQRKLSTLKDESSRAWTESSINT

Compound	IC50 [1]	IC50 [2]	EC50 [3]	EC50 [4]	IC50 [5]	Kp [6]	clearance [7]	fraction unbound [8]	IC50 [9]	Fu [8]	IC50 [10]
Cc1nnc2sc(C(=O)NCc3ccc(S(F)(F)(F)(F)F)cc3)c(N)c2c1C	2100 nM	6500 nM	30.2 nM	550 nM	520 nM	1.4	12 mL/min/kg				
Cc1nnc2sc(C(=O)NCc3ccc(S(=O)(=O)C(F)(F)F)cc3)c(N)c2c1C								0.031	240 nM		
Cc1nnc2sc(C(=O)NCc3ccc(S(=O)(=O)C(F)F)cc3)c(N)c2c1C			17.8 nM	251 nM	600 nM	0.11	16 mL/min/kg			0.066	5700 nM
